Measurements from US20180074053A1 (priority 2016, published 2018).
Non-standard residues stand in square brackets, D forms with d. No end group written: not given here.

Experiments:
MrgprD^−/− (KO) mice = conditions: 0.5 mg/g with 2 mg/g glucose oral; P<0.05 KO vs. WT
Method: (§1) The mice were fasted overnight and their fasting glucose levels were measured. […] Blood glucose levels were measured at 30, 60, 90 and 120 minutes after glucose loading.
as §1

HEK293T cells = conditions: 0.0037-0.1 mM; FIG. 4
Method: Real-time Ca2+ flux assays. To further validate the GPCRProfiler results, we established a real-time Ca2+ flux assay using a FlexStation 3 Microplate Reader (Molecular Devices). […] The Fluo-4 Direct™ Calcium Assay Kits (Life Technologies), which allows direct addition to wells containing cells growing in culture media without the requirement of media removal or a wash step, is used to monitor Ca2+ flux in cells according to the manufacturer's protocol. Briefly, HEK293T cells are plated and cultured in 96-well microplates to near confluence. The microplates containing cells are removed from the incubator and an equal volume of 2× Fluo-4 Direct™ calcium reagent loading solution is added directly to wells containing cells in culture medium. The plates are incubated for 30 minutes at 37° C. and 30 minutes at room temperature. Then the plates (no need to remove the medium or Fluo-4 Direct™ calcium reagent) are placed on FlexStation 3 with settings appropriate for excitation at 494 nm and emission at 516 nm. FlexStation 3 can directly transfer reagents from 96-well source plates to a read plate one column at a time. […] Shaded shapes are negative controls.

eNOS = eNOS mRNA expression in HUVEC; format: cell-based, human; conditions: FIG. 15
From the text: It has been shown that activation of MRGD by alamandine plays an important role in vasodilation by increasing nitric oxide (NO) production. NO produced by the endothelium is an important protective molecule in the vasculature and is mainly generated by the enzyme endothelial NO synthase (eNOS) in blood vessels. Enhancing the expression of eNOS has been considered as possible therapeutic strategy for reducing cardiovascular risk.

MRGD = MRGD (Homo sapiens, UniProt Q8TDS7); assay: Calcium mobilization in MRGD over-expressing cells; format: cell-based; design: host or cells: ChemiScreen over-expressing cell line, given as 'HEK 293T cells (Chem-1, EMD Millipore)'; conditions: at 5 mM, highest dose used; Example 4
Chain of MRGD (Q8TDS7 whole entry): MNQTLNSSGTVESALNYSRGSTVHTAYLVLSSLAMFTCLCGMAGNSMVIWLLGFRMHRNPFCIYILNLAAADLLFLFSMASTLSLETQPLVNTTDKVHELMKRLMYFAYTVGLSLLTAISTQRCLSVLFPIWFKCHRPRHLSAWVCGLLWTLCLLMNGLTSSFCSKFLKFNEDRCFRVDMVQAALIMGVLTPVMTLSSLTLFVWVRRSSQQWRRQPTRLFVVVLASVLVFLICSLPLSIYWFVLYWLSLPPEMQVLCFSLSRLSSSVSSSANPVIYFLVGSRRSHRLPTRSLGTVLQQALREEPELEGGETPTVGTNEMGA
Method: (§2) Cells were grown in DMEM medium containing 10% FBS, 1× non-essential amino acids (Gibco #111450-040), 20 mM HEPES and 250 μg/mL Geneticin® (Gibco #10131-035). Cells were harvested with 0.25% Trypsin/EDTA (Gibco #25200-056), pelleted at 1,200×g for 6 minutes and resuspended in DMEM media described above minus Geneticin®. The cells were seeded at 4×10^4 cells/well/100 μL of a clear bottom/black 96-well plate and grown overnight. The calcium mobilization assays was performed using Screen Quest Fluo-8 Medium Removal Calcium Assay Kit (AAT Bioquest #36308) according to the manufacturer's protocol. Briefly, cells were washed with 100 μL volume of Hank's balanced salt solution, 20 mM HEPES, pH 7.4 and loaded with a buffer containing HBSS, 20 mM HEPES, 1× Pluronic F127 and the Fluo-8 NW dye. The cells were incubated for 30 minutes at 37° C. followed by a 30 minute room temperature incubation. Drug stocks were prepared at 100× concentration and diluted 1:33 in HBSS, 20 mM HEPES, pH 7.4 in a 96-well plate (Corning #3641). Calcium mobilization was measured using the FlexStation 3 (Molecular Devices) at excitation wavelength of 490 nm and emission wavelength of 525 nm. Fluorescence was measured for 180 seconds at 5 second intervals with the addition of compound at a 1:3 dilution after 15 seconds. Peak fluorescence values were calculated using SoftMax Pro 5 (Molecular Devices). The fluorescence values obtained from control wells without cells are subtracted from wells containing treated cells to correct for background. The ratio of fluorescence values of treated cells to vehicle control wells was used to calculate fold activity of the compounds.
MRGD cells (EMD Millipore, MA) were treated with either β-alanine, or alamandine at various concentrations (FIG. 10) and calcium mobilization was monitored using a FlexStation 3 Microplate Reader (Molecular Devices) as described in Example 4.

HUVEC cells = conditions: 4 mM time course, 0.05-32.0 mM for 60 minutes; FIGS. 16, 17
Method: Briefly, HUVEC cells, previously plated in 96-well plate, were washed and the media changed to DMEM with 3% FBS for overnight incubation and cell starvation. On the day of the experiment, the cells were incubated with DAF-FM diacetate (Molecular Probes, catalog #D23842) at the final concentration of 7-10 nM for 30 minutes. […] Every treatment was performed in triplicate. The fluorescence was detected starting at 10 min with exc/em of 495 nm/515 nm.
The background signal (fluorescence signal from cells that were not loaded with dye) was subtracted from the other measurements.
Briefly, HUVEC cells, previously plated in 96-well plate, were washed and the media changed to DMEM with 3% FBS for overnight incubation and cell starvation. On the day of the experiment, the cells were incubated with DAF-FM diacetate (Molecular Probes, catalog #D23842) at the final concentration of 7-10 nM for 30 minutes. […] Every treatment was performed in triplicate. The fluorescence was detected 60 minutes with exc/em of 495 nm/515 nm.

C57BL/6J mice = assay: Oral glucose tolerance test (OGTT); format: in vivo, mouse
Method: C57BL/6J mice were received from Jackson Laboratories at 4 weeks old and aged to 7 weeks and then grouped by body weight into 4 groups of 10. The mice were fasted overnight (12 hours) prior to the assay. Body weights and blood glucose (FreeStyle Lite glucometer) levels were determined. […] At 30, 60, 90, and 120 minutes glucose levels were measured using whole blood collected from the tip of the tail via needle puncture. Upon the final 120 min measurement, food was returned to the mice.
Oral glucose tolerance tests (OGTTs) were performed as described in Example 1.
(§3) C57BL/6J mice were received from Jackson Laboratories at 4 weeks old and aged to 7 weeks and then grouped by body weight into 4 groups of 10. The mice were fasted overnight (12 hours) prior to the assay. Body weights and blood glucose (FreeStyle Lite glucometer) levels were determined. […] At 30, 60, 90, and 120 minutes glucose levels were measured using whole blood collected from the tip of the tail via needle puncture.
as §3

GPCR109a = GPCR109a (Homo sapiens, UniProt Q8TDS4); conditions: doses of 5 mM and below; FIG. 6A
Chain of GPCR109a (Q8TDS4 whole entry): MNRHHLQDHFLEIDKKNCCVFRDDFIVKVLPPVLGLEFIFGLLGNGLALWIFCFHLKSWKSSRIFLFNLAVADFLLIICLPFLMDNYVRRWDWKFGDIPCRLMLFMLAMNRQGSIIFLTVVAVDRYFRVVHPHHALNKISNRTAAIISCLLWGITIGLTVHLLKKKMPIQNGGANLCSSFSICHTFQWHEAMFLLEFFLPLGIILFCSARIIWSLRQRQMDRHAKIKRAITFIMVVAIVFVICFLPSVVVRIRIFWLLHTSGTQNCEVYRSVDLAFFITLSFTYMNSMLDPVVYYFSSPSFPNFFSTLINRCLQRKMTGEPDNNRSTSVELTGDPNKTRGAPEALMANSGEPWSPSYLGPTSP
Method: as §2
(§4) The specificity of the agonist activity was determined by testing in the cell lines that over-express GPCR40 and GPCR 109a.

GPCR40 = GPCR40 (Homo sapiens, UniProt O14842); conditions: doses of 5 mM and below; FIG. 7A
Chain of GPCR40 (O14842 whole entry): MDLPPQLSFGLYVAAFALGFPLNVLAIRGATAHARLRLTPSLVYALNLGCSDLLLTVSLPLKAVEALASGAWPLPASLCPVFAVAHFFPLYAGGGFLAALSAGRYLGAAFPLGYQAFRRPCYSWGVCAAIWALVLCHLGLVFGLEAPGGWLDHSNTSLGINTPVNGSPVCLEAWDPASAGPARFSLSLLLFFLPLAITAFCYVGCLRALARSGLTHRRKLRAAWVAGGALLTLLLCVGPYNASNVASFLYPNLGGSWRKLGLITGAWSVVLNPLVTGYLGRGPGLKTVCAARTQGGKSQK
Method: as §2, §4

[1] = target: MAS-related G-protein-coupled receptor member D (MRGD) (human, UniProt Q8TDS7 1-321); assay: cell-based or functional assay
Chain of MAS-related G-protein-coupled receptor member D (MRGD) (Q8TDS7 whole entry): as the sequence (Q8TDS7 whole entry) above

NK2 = target: T1, NK2 (UniProt P21452 1-398); assay: cell-based or functional assay
T1 sequence (looked up): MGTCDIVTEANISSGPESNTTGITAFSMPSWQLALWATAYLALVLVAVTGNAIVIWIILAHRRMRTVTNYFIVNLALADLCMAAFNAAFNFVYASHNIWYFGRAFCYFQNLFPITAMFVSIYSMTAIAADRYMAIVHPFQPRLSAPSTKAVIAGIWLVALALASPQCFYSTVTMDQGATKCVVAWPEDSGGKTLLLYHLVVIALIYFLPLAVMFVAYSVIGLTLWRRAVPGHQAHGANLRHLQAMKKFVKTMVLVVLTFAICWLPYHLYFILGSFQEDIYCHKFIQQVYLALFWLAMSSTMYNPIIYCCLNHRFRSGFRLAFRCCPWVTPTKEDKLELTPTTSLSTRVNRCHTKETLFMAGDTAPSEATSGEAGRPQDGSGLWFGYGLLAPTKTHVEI

CC(C)C[C@@H](NC(=O)CNC(=O)CN)C(=O)O
reduction of blood glucose levels in KO mice compared with WT mice (OGTT) (MrgprD^−/− (KO) mice): significantly impaired | real-time Ca2+ flux (HEK293T cells): stimulate greater Ca^2+ flux | eNOS mRNA levels (eNOS; 30 minutes, vs control): the same | eNOS expression (eNOS; 60 minutes): increased eNOS expression | eNOS expression (eNOS; 120 minutes): increased eNOS expression | calcium mobilization activity (MRGD): active | nitric oxide (NO) release (HUVEC cells): Stimulates Nitric Oxide Release | significance of blood glucose lowering in OGTT (C57BL/6J mice; Example 5, FIG. 9, 0.1 mg/g): significant | significance of blood glucose lowering in OGTT (C57BL/6J mice; Example 5, FIG. 9, 0.5 mg/g): significant | significance of blood glucose lowering in OGTT (C57BL/6J mice; Example 5, FIG. 9, 1 mg/g): significant | blood glucose in response to a glucose load (OGTT) (C57BL/6J mice; Example 5, FIG. 9, 1, 0.5 and 0.1 mg/g body weight): lower blood glucose in response to a glucose load, in a dose-dependent manner | overall effect on blood glucose compared with metformin (C57BL/6J mice; Example 9): not found to be significantly different | overall effect on blood glucose in OGTT vs vehicle (C57BL/6J mice; Example 9, FIG. 14, DT-110 1 mg/g, alamandine 10 mg/g, metformin 0.2 mg/g): significant | rise in blood glucose at 30 min in OGTT (C57BL/6J mice; Example 9, DT-110 1 mg/g, P<0.001 vs. all other treatments): dramatically blocked the rise in blood glucose | effect on blood glucose compared with alamandine (C57BL/6J mice; Example 9, P<0.001): significantly different from alamandine | agonist activity (Ca2+ flux) (GPCR109a): inactive | agonist activity (Ca2+ flux) (GPCR40): inactive

Gly-Gly-[dL] [DT-110, tripeptide glycine-glycine-D-leucine (GGdL)]
percent activation (calcium flux, GPCRProfiler), DT-110 @ 1.25 mM, Avg. [1]: 69.2% | percent activation (calcium flux, GPCRProfiler), DT-110 @ 1.25 mM, n1 [1]: 76.5% | percent activation (calcium flux, GPCRProfiler), DT-110 @ 1.25 mM, n2 [1]: 62% | percent activation (calcium flux, GPCRProfiler), DT-110 @ 12.5 mM, Avg. [1]: 64.5% | percent activation (calcium flux, GPCRProfiler), DT-110 @ 12.5 mM, n1 [1]: 60.7% | percent activation (calcium flux, GPCRProfiler), DT-110 @ 12.5 mM, n2 [1]: 68.3% | percent activation (calcium flux, GPCRProfiler), DT-110 @ 1.25 mM, Avg. (NK2): -9.5% | percent activation (calcium flux, GPCRProfiler), DT-110 @ 1.25 mM, n1 (NK2): -9.4% | percent activation (calcium flux, GPCRProfiler), DT-110 @ 1.25 mM, n2 (NK2): -9.6% | percent activation (calcium flux, GPCRProfiler), DT-110 @ 12.5 mM, Avg. (NK2): -9.6% | percent activation (calcium flux, GPCRProfiler), DT-110 @ 12.5 mM, n1 (NK2): -9.5% | percent activation (calcium flux, GPCRProfiler), DT-110 @ 12.5 mM, n2 (NK2): -9.7%
